Patent US5045566A, “Novel imidate insecticides” (ICI Americas Inc., priority 1989, dated 1991)

Legend:
Format in all cases: in vivo
[1] = system: Black Bean Aphid [Aphis fabae (Scop.)]; assay: Black bean aphid spray test on nasturtium (BBA), 48 hours; details: percent of test compound in sprayed solution
Summary of the method: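 LC50, given as percent test compound in the sprayed liquid, was calculated from dosage-mortality curves using concentrations from 0.05% downward. Sprays in 50:50 acetone-water went to runoff on ~5 cm nasturtiums carrying 25-50 aphids of mixed ages, one day after infestation. Deaths were counted 48 h later under greenhouse conditions.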

[2] = system: Aster Leafhopper [Macrosteles fascifrens (Stal)]; assay: Aster leafhopper on dipped oat seedlings (LH), 48 hours; details: percent in solution, adults/nymphs
Summary of the method: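 LC50 values, given as percent of test compound in the dip solution, were derived from dosage-mortality curves over concentrations from 0.05% downward. Mortality was counted 48 hours after ten leafhopper adults/nymphs were enclosed on treated seedlings. The seedlings were oats, about 10 cm tall, briefly dipped in 50-50 acetone-water.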

[3] = system: Tobacco Budworm [Heliothis virescens (Fabricius)] eggs; assay: Tobacco budworm eggs (TBW-E); details: percent in solution; 2-day old eggs
Summary of the method: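 LC50 values (percent test compound in the dip solution) were calculated from dosage-mortality curves. Egg patches, 2 days old, were dipped in acetone solutions at concentrations from 0.1% downward and held at 78° F on rearing medium until control larvae hatched and fed.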

[4] = system: Cabbage Looper [Trichoplusia ni (Hubner)]; assay: Cabbage looper leaf dip (CL), 3-5 days; details: percent in solution, second-instar larvae
Summary of the method: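 Leaf dip, squash cotyledons, 50-50 acetone-water, top dose 0.1% and lower. 5 second-instar larvae/dish, moist filter paper, high-humidity chamber. Mortality at 3-5 d; LC50 (% in solution) from dosage-mortality curves.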

[5] = system: Housefly [Musca domestica]; assay: Housefly contact mortality in dishes (HF), 48 hours; details: μg of test compound per 25 female flies
Summary of the method: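 LC50, as μg compound per 25 female flies, comes from dosage-mortality curves with doses from 100 μg downward. Residues were made by evaporating acetone plus 0.01% peanut oil in dishes, onto which 1-2-day-old females were caged; deaths were counted after 48 hours.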

[6] = system: Beet Armyworm (Spodoptera exigua); assay: Beet armyworm leaf dip (BAW), 5 days; details: percent in solution; second-instar larvae; five days
Experimental: (§1) The compounds in Tables 1 and 2 above were tested for insecticidal activity using the following testing procedures. LC50 values, based on the results of these tests and calculated according to dosage-mortality curves, are expressed in Table 3.
Beet Armyworm (Spodoptera exigua):
Test compounds were diluted in a 50-50 acetone-water solution. Young leaves of sugar beets (Beta vulgaris) were immersed in the test solutions for 2-3 seconds and placed on a wire screen to dry. The dried leaves were placed in petri dishes containing a moistened filter paper and infested with five second-instar beet armyworm larvae. The dishes were placed in a high humidity chamber. Mortality of the larvae was recorded five days later. Test concentrations ranged from 0.1% downward. The LC-50 values are expressed below in Table 3 under the heading "BAW" in terms of percent of the test compound in solution.

[7] = system: Maize weevil [Sitophilus zeamais (Motschulsky)]; assay: Maize weevil on dipped corn seeds (MW), 48 hours; details: percent in solution, adult weevils
Summary of the method: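 LC50, given as percent of compound in dipping solution, comes from dosage-mortality curves over concentrations descending from 0.01%. Four corn seeds soaked 2-3 s in 50:50 acetone:water solution were dried and held with 10 adult weevils, about 25° C, mortality read after 48 h.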

[8] = system: Tobacco Budworm [Heliothis virescens (Fabricius)] larvae; assay: Tobacco budworm larvae, contact (TBW-C), 5 days; details: percent in solution, second-instar larvae
Experimental: as §1
Tobacco Budworm [Heliothis virescens (Fabricius)]:
(a) Contact: Test compounds were diluted in a 50-50 acetone-water solution. Cotton (Gossypium sp.) cotyledons were immersed in the test solutions for 2-3 seconds and placed on a wire screen to dry. The dried leaves were placed in petri dishes containing a moistened piece of filter paper and infested with 5 second-instar tobacco budworm larvae. The dishes were placed in a high humidity chamber for 5 days, and percent mortality of the larvae recorded. Test concentrations ranged from 0.1% downward. The LC-50 values are expressed below in Table 3 under the heading "TBW-C" in terms of percent of the test compound in the solution.

Row | SMILES | LC50 BBA [1] [%] | LC50 LH [2] [%] | LC50 TBW E (eggs) [3] [%] | LC50 CL [4] [%] | LC50 HF [5] [µg] | LC50 BAW [6] [%] | LC50 MW [7] [%] | LC50 TBW C (contact) [8] [%]
1 | CC(C)C(=Nc1ccc(F)cc1)OCc1cccc(Oc2ccccc2)c1 [Compound 46] | 0.003 | 0.002 | 0.016 | 0.003 | 7 | 0.006 | – | –
2 | CC(C)C(=Nc1cccc(Cl)c1)OCc1cccc(Oc2ccccc2)c1 [Compound 7] | 0.0003 | 0.0002 | 0.009 | 0.006 | 8 | 0.006 | – | –
3 | CC(C)C(=Nc1ccc2c(c1)OC(F)(F)O2)OCc1cccc(Oc2ccc(Cl)cc2)c1 [Compound 450] | – | – | 0.015 | 0.00016 | 72 | 0.005 | 0.01 | 0.0001
4 | CC(C)C(=Nc1cccc(C(F)(F)F)c1)OCc1cccc(Oc2ccccc2)c1 [Compound 67] | 0.0002 | 0.00027 | 0.01 | 0.001 | 15 | 0.006 | – | –
5 | CC(C)C(=Nc1ccc(F)c(Cl)c1)OCc1cccc(Oc2ccc(Cl)cc2)n1 [Compound 463] | 0.05 | 0.0003 | 0.0075 | 0.00009 | 8 | 0.0024 | 0.01 | –
6 | CCC(C)C(=Nc1ccc(F)c(Cl)c1)OCc1cccc(Oc2ccccc2)c1 (stereo not shown) [Compound 122] | > 0.05 | > 0.05 | 0.05 | 0.0007 | 37 | 0.01 | > 0.01 | –
7 | Cc1c(Cl)cccc1N=C(OCc1cccc(Oc2ccccc2)c1)C(Cl)Cl [Compound 97] | 0.001 | – | 0.04 | 0.002 | 10 | 0.01 | – | 0.004
8 | CC(C)C(=Nc1ccc(Cl)c(Cl)c1)OCc1cccc(Oc2ccccc2)c1 [Compound 14] | 0.0003 | 0.001 | – | 0.004 | 40 | 0.005 | 0.01 | –
9 | Clc1ccccc1N=C(OCc1cccc(Oc2ccccc2)c1)C(Cl)Cl [Compound 34] | > 0.05 | – | > 0.1 | 0.015 | > 100 | 0.015 | – | 0.01
10 | CC(C)C(=Nc1ccc(F)c(Cl)c1F)OCc1cccc(Oc2ccccc2)c1 [Compound 332] | > 0.05 | – | 0.015 | 0.00045 | 7 | 0.0012 | – | 0.00075
11 | CC(C)C(=Nc1ccc(F)c(Cl)c1F)OCc1cccc(Oc2ccc(Cl)cc2)n1 [Compound 500] | > 0.05 | – | 0.02 | 0.00009 | 16 | 0.002 | – | 0.00075
12 | CC(C)C(=Nc1ccc2c(c1)OC(C)(C)O2)OCc1ccc(F)c(Oc2ccc(F)cc2)c1 [Compound 283] | – | – | 0.016 | 0.00009 | 23 | 0.0013 | > 0.01 | 0.0009
13 | CC(C)C(=Nc1ccc(F)cc1)OCc1ccc(F)c(Oc2ccccc2)c1 [Compound 53] | 0.001 | – | 0.02 | 0.0005 | 2 | 0.003 | – | 0.0025
14 | CC(C)C(=Nc1ccc(F)c(I)c1)OCc1ccc(F)c(Oc2ccc(Cl)cc2)c1 [Compound 326] | > 0.05 | – | 0.03 | 0.00015 | 25 | 0.004 | – | 0.0005
15 | Clc1ccc(N=C(OCc2cccc(Oc3ccccc3)c2)C2CC2)cc1 [Compound 32] | 0.003 | > 0.05 | – | 0.003 | 37 | 0.03 | > 0.01 | –
16 | FC(F)(F)Oc1ccc(N=C(OCc2cccc(Oc3ccccc3)c2)C2CC2)cc1 [Compound 63] | 0.0003 | 0.0001 | – | 0.005 | 30 | 0.005 | > 0.01 | –
17 | Cc1ccc(N=C(OCc2cccc(Oc3ccccc3)c2)C(Cl)Cl)cc1 [Compound 139] | 0.001 | – | 0.05 | 0.015 | 4.2 | 0.007 | – | 0.005
18 | FC(F)(F)c1ccc(N=C(OCc2cccc(Oc3ccccc3)c2)C2CC2)c(Cl)c1 [Compound 65] | > 0.05 | > 0.05 | – | < 0.01 | > 100 | > 0.1 | – | –
19 | FC(F)(F)c1ccc(N=C(OCc2cccc(Oc3ccccc3)c2)C2CC2)cc1 [Compound 62] | 0.001 | > 0.05 | – | 0.005 | 20 | 0.02 | > 0.01 | –
20 | O=[N+]([O-])c1ccc(N=C(OCc2cccc(Oc3ccccc3)c2)C(Cl)Cl)cc1 [Compound 173] | > 0.05 | – | > 0.1 | 0.02 | 18 | > 0.1 | – | > 0.1
